Columns and labels:
HSD17B4 = target: T1, HSD17B4 (Homo sapiens, UniProt P51659); experiment: Binary MASPIT assay; format: cell-based; conditions: binary MASPIT assay
T1 construct: endogenous in cells; host or cells: HEK293T
T1 sequence (P51659 1-736): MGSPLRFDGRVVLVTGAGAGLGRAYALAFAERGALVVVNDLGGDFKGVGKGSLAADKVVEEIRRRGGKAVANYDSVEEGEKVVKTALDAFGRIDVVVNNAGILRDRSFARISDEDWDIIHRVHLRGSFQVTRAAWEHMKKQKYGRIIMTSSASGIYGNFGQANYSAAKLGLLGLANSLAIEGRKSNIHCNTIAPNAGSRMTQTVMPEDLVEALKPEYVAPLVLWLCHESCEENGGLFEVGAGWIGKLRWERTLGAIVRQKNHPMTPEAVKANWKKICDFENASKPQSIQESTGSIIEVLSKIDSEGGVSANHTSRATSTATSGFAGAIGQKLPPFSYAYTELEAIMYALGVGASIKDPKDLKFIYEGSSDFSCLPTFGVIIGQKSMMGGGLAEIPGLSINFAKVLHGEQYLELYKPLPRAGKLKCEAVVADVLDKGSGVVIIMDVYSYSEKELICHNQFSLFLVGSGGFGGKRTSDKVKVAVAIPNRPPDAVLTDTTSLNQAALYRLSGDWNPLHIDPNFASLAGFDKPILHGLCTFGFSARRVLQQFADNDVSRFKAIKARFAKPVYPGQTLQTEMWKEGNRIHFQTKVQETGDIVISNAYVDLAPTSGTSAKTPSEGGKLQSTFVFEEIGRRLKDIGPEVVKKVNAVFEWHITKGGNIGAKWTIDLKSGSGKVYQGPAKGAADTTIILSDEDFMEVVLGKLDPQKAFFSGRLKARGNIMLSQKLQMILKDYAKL
Method: The binding of HSD17B4 to tamoxifen was further confirmed using the MASPIT technology. The binary MASPIT assay was essentially performed as described before (Risseeuw et al., 2013). Briefly, HEK293T cells were seeded in black tissue-culture treated 96-well plates at 10.000 cells/well in 100 μl culture medium (DMEM supplemented with 10% fetal calf serum), and grown at 37° C., 8% CO2. Twenty-four hours later cells were transfected with a combination of the pCLG-eDHFR plasmid (Risseeuw et al., 2013), the pMG1-HSD17B4 construct and the pXP2d2-rPAP1-luciferase reporter (Caligiuri et al., 2006). The pMG1-HSD17B4 construct was generated by Gateway transfer of the full size HSD17B4 ORF, obtained as an entry clone in the hORFeome collection, into the Gateway compatible pMG1 prey destination vector as described earlier (Lievens et al., 2009). Twenty-four hours after transfection, cells were either left unstimulated or treated with 100 ng/ml leptin, with or without addition of MTX-PEG6-tamoxifen. Another 24 hours later, luciferase activity was assayed using the Luciferase Assay System kit (Promega).

ATP6V0C = target: T2, ATP6V0C (Homo sapiens, UniProt P27449); experiment: Viral trapping in VLPs, MS analysis; format: binding; conditions: all proteins (incl. low confidence identifications)
T2 construct: endogenous in cells; host or cells: HEK293T
T2 sequence (P27449 whole entry): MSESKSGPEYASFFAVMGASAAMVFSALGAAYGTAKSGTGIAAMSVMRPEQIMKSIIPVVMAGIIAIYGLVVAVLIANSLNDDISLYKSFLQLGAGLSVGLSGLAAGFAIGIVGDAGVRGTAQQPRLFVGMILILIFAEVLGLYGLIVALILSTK

EIF1AY = experiment: Viral trapping in VLPs, MS analysis; format: binding, human; conditions: all proteins (incl. low confidence identifications)
PYGM = experiment: Viral trapping in VLPs, MS analysis; format: binding, human; conditions: all proteins (incl. low confidence identifications)
LAMTOR5 = target: T3, LAMTOR5 (Homo sapiens, UniProt O43504); experiment: Viral trapping in VLPs, MS analysis; format: binding; conditions: all proteins (incl. low confidence identifications)
T3 construct: endogenous in cells; host or cells: HEK293T

FABP1 = target: T4, FABP1 (Homo sapiens, UniProt P07148); experiment: Viral trapping in VLPs, MS analysis; format: binding; conditions: all proteins (incl. low confidence identifications)
T4 construct: endogenous in cells; host or cells: HEK293T

CNPY2 = target: T5, CNPY2 (Homo sapiens, UniProt Q9Y2B0); experiment: Viral trapping in VLPs, MS analysis; format: binding; conditions: all proteins (incl. low confidence identifications)
T5 construct: endogenous in cells; host or cells: HEK293T
T5 sequence (Q9Y2B0 21-182): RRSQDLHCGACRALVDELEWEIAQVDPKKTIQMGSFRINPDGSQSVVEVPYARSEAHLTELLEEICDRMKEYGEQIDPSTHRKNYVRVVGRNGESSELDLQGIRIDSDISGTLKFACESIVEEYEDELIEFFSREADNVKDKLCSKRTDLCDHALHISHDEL

RBP4 = experiment: Viral trapping in VLPs, MS analysis; format: binding, human; conditions: all proteins (incl. low confidence identifications)
GALNT1 = target: T6, GALNT1 (Homo sapiens, UniProt Q10472); experiment: Viral trapping in VLPs, MS analysis; format: binding; conditions: all proteins (incl. low confidence identifications)
T6 construct: endogenous in cells; host or cells: HEK293T

RAB4A = target: T7, RAB4A (Homo sapiens, UniProt P20338); experiment: Viral trapping in VLPs, MS analysis; format: binding; conditions: all proteins (incl. low confidence identifications)
T7 construct: endogenous in cells; host or cells: HEK293T
T7 sequence (P20338 whole entry): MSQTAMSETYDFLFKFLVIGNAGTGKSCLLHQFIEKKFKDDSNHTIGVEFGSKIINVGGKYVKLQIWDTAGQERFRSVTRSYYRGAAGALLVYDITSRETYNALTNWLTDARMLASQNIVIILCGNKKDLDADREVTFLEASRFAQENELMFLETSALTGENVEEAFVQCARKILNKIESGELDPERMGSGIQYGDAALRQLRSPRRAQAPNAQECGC

LNPEP = target: T8, LNPEP (Homo sapiens, UniProt Q9UIQ6); experiment: Viral trapping in VLPs, MS analysis; format: binding; conditions: all proteins (incl. low confidence identifications)
T8 construct: endogenous in cells; host or cells: HEK293T

AKT3 = target: T9, AKT3 (Homo sapiens, UniProt Q9Y243); experiment: Viral trapping in VLPs, MS analysis; format: binding; conditions: all proteins (incl. low confidence identifications)
T9 construct: endogenous in cells; host or cells: HEK293T

GINS1 = target: T10, GINS1 (Homo sapiens, UniProt Q14691); experiment: Viral trapping in VLPs, MS analysis; format: binding; conditions: all proteins (incl. low confidence identifications)
T10 construct: endogenous in cells; host or cells: HEK293T

CTU1 = target: T11, CTU1 (Homo sapiens, UniProt Q7Z7A3); experiment: Viral trapping in VLPs, MS analysis; format: binding
T11 construct: endogenous in cells; host or cells: HEK293T
T11 sequence (Q7Z7A3 whole entry): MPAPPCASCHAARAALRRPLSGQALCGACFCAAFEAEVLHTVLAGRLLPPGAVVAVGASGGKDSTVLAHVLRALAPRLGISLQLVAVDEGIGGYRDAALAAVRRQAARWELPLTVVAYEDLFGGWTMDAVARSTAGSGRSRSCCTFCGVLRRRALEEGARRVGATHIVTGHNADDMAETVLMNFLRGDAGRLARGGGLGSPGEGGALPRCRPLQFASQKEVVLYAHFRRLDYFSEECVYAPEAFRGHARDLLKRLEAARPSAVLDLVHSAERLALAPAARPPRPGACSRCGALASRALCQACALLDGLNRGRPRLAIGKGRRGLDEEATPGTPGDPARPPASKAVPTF

DDTL = experiment: Viral trapping in VLPs, MS analysis; format: binding, human; conditions: all proteins (incl. low confidence identifications)
FHL1 = target: T12, FHL1 (Homo sapiens, UniProt Q13642); experiment: Viral trapping in VLPs, MS analysis; format: binding; conditions: all proteins (incl. low confidence identifications)
T12 construct: endogenous in cells; host or cells: HEK293T

KIAA0319L = target: T13, KIAA0319L (Homo sapiens, UniProt Q8IZA0); experiment: Viral trapping in VLPs, MS analysis; format: binding
T13 construct: endogenous in cells; host or cells: HEK293T
T13 sequence (Q8IZA0 whole entry): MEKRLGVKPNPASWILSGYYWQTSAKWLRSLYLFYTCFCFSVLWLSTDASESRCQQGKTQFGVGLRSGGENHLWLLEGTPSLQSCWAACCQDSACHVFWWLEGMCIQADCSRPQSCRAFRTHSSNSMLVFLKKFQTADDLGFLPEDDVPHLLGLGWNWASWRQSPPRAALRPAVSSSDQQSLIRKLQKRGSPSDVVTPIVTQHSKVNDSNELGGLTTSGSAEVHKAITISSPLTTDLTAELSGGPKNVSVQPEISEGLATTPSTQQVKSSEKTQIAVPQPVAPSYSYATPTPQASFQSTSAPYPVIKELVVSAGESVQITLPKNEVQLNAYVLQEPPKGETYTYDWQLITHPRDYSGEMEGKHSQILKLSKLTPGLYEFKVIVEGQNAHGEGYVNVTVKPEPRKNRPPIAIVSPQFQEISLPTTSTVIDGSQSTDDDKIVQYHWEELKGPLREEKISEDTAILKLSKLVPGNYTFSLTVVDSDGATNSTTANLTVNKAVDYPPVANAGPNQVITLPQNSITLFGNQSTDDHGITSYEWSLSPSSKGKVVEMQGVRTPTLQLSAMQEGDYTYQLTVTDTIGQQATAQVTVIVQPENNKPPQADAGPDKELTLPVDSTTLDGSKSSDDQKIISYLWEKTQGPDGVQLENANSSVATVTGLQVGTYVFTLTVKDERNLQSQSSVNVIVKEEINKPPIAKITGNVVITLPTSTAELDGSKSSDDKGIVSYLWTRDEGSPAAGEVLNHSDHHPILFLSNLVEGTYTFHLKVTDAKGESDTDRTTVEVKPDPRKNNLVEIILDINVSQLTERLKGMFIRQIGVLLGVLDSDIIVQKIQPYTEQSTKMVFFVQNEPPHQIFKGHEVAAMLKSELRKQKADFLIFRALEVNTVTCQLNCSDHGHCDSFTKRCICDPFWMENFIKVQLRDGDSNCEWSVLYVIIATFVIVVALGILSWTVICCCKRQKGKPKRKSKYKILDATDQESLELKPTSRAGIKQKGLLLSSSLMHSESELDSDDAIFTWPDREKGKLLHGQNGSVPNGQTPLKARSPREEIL

SLC46A1 = target: T14, SLC46A1 (Homo sapiens, UniProt Q96NT5); experiment: Viral trapping in VLPs, MS analysis; format: binding; conditions: all proteins (incl. low confidence identifications)
T14 construct: endogenous in cells; host or cells: HEK293T

MOXD1 = target: T15, MOXD1 (Homo sapiens, UniProt Q6UVY6); experiment: Viral trapping in VLPs, MS analysis; format: binding; conditions: all proteins (incl. low confidence identifications)
T15 construct: endogenous in cells; host or cells: HEK293T

LOC512271 = experiment: Viral trapping in VLPs, MS analysis; format: binding; conditions: all proteins (incl. low confidence identifications)
SBDS = target: T16, SBDS (Homo sapiens, UniProt Q9Y3A5); experiment: Viral trapping in VLPs, MS analysis; format: binding; conditions: all proteins (incl. low confidence identifications)
T16 construct: endogenous in cells; host or cells: HEK293T

PDIA4 = target: T17, PDIA4 (Homo sapiens, UniProt P13667); experiment: Viral trapping in VLPs, MS analysis; format: binding
T17 construct: endogenous in cells; host or cells: HEK293T

HMGCR = target: T18, HMGCR (Homo sapiens, UniProt P04035); experiment: Viral trapping in VLPs, MS analysis; format: binding
T18 construct: endogenous in cells; host or cells: HEK293T
T18 sequence (P04035 whole entry): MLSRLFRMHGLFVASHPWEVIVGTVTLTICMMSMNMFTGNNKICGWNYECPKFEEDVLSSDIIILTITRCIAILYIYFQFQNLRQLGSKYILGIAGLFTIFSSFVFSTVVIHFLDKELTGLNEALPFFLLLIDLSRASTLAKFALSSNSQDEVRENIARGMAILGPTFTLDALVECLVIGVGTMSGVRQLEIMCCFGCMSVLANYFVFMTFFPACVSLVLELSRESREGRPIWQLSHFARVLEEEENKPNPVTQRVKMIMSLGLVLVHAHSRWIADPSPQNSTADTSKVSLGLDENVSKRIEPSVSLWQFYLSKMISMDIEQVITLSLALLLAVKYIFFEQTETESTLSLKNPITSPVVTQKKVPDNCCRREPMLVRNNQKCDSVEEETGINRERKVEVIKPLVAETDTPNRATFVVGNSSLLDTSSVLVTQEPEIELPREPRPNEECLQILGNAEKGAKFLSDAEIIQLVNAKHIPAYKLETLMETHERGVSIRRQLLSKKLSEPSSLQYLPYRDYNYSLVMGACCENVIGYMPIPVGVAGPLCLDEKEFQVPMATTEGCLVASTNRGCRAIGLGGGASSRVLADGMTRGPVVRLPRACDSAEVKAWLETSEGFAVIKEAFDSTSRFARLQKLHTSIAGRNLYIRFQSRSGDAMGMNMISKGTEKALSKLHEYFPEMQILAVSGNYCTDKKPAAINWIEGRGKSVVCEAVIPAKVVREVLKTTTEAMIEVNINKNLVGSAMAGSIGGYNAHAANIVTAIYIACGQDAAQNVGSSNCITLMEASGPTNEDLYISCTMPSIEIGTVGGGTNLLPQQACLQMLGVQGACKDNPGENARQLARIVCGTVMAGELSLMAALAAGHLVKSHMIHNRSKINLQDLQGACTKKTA

VAMP4 = target: T19, VAMP4 (Homo sapiens, UniProt O75379); experiment: Viral trapping in VLPs, MS analysis; format: binding; conditions: all proteins (incl. low confidence identifications)
T19 construct: endogenous in cells; host or cells: HEK293T

KRT6B = target: T20, KRT6B (Homo sapiens, UniProt P04259); experiment: Viral trapping in VLPs, MS analysis; format: binding
T20 construct: endogenous in cells; host or cells: HEK293T
T20 sequence (P04259 whole entry): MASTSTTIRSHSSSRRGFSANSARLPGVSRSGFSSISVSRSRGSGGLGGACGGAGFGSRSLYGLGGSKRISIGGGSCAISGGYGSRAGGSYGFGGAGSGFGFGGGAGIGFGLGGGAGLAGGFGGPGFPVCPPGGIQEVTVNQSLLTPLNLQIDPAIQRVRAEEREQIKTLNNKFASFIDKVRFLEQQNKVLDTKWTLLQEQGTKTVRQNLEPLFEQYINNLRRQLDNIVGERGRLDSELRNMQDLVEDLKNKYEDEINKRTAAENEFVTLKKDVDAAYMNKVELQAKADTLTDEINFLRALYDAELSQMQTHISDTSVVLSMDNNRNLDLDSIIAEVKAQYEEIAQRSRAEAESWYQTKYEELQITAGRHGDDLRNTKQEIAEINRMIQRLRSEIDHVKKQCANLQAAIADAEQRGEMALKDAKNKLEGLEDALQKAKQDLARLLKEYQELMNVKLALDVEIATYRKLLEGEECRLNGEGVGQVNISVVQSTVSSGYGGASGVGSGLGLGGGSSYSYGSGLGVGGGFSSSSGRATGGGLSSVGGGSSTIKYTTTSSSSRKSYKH

LOC524129 = experiment: Viral trapping in VLPs, MS analysis; format: binding; conditions: all proteins (incl. low confidence identifications)
TMED9 = target: T21, TMED9 (Homo sapiens, UniProt Q9BVK6); experiment: Viral trapping in VLPs, MS analysis; format: binding; conditions: all proteins (incl. low confidence identifications)
T21 construct: endogenous in cells; host or cells: HEK293T

SQLE = target: T22, SQLE (Homo sapiens, UniProt Q14534); experiment: Viral trapping in VLPs, MS analysis; format: binding
T22 construct: endogenous in cells; host or cells: HEK293T
T22 sequence (Q14534 whole entry): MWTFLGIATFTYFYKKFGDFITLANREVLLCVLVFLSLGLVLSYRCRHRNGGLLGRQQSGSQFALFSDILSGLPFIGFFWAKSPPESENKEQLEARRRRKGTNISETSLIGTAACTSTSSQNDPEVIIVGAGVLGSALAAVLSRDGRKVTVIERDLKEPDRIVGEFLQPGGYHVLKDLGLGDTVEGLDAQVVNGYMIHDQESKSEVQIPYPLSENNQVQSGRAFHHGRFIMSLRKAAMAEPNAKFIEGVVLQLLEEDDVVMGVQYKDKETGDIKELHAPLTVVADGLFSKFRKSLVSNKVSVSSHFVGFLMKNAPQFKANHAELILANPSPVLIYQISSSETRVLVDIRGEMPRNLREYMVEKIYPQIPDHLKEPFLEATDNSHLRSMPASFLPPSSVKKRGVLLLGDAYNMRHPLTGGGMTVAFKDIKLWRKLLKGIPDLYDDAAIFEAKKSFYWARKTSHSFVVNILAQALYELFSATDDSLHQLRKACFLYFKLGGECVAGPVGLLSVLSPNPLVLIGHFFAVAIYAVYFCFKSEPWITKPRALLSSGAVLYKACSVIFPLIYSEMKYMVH
Method: (§1) To screen for simvastatin binders, cells were transfected with the GAG-eDHFR construct and then treated immediately after transfection with the MTX-PEG6-simvastatin molecule. A total of five biological repeats were performed together with four DMSO control experiments. The list of candidate interactors was obtained after removal of all proteins (including proteins identified with a single peptide) that were found in 19 control samples, the four DMSO samples and the other small molecule samples (e.g., the protein list of the five simvastatin samples was challenged against a total of 29 samples). The control samples are a number of successful Virotrap experiments using unrelated proteins to generate a list of proteins that can be considered background proteins, and that can be subtracted from the protein list obtained for the actual samples.
(§2) For each small molecule condition, two lists of proteins (annotated by their gene name) were reported. The left part of the tables (“All proteins”) contains all unique protein identifications (thus also proteins identified with a single peptide) obtained after removal of the background proteins. The right part of the tables (“Proteins identified with >1 peptide”) contains only the proteins identified with high confidence (at least two modified peptide identifications for each protein). Some recurrent proteins that were identified in multiple experiments with a single peptide are removed from this list (e.g., PYGM identified with low confidence in two repeat experiments).

UBIAD1 = target: T23, UBIAD1 (Homo sapiens, UniProt Q9Y5Z9); experiment: Viral trapping in VLPs, MS analysis; format: binding
T23 construct: endogenous in cells; host or cells: HEK293T
T23 sequence (Q9Y5Z9 whole entry): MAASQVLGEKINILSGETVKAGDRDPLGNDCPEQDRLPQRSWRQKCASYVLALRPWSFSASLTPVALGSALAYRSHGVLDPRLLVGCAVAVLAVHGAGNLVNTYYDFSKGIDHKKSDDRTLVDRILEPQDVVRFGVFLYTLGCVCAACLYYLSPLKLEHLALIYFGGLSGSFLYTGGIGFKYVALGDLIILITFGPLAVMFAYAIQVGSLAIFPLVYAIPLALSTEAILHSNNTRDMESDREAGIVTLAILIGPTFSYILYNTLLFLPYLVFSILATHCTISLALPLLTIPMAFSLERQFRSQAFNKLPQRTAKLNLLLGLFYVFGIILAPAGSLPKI
Method: as §1, §2

SARM1 = target: T24, SARM1 (Homo sapiens, UniProt Q6SZW1); experiment: Viral trapping in VLPs, MS analysis; format: binding
T24 construct: endogenous in cells; host or cells: HEK293T
T24 sequence (Q6SZW1 28-724): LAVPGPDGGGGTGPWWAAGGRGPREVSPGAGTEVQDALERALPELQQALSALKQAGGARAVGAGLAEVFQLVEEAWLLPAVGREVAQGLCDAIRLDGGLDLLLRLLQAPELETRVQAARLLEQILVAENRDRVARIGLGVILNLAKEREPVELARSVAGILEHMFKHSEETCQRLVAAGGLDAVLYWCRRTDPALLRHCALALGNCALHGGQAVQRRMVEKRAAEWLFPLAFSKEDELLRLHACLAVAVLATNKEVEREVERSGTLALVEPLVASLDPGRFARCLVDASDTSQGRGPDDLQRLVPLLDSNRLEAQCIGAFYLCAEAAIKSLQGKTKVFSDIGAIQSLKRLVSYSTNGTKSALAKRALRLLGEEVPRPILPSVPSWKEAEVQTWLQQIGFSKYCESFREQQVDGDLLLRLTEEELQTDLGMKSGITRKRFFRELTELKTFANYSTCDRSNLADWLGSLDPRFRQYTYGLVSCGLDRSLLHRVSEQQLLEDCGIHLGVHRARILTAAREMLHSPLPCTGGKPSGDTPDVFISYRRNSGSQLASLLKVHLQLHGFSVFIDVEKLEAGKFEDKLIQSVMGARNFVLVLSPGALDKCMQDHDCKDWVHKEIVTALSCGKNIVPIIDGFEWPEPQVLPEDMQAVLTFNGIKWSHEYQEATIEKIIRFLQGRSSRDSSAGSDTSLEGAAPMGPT

PRKCSH = target: T25, PRKCSH (Homo sapiens, UniProt P14314); experiment: Viral trapping in VLPs, MS analysis; format: binding; conditions: all proteins (incl. low confidence identifications)
T25 construct: endogenous in cells; host or cells: HEK293T

DBI = target: T26, DBI (Homo sapiens, UniProt P07108); experiment: Viral trapping in VLPs, MS analysis; format: binding; conditions: all proteins (incl. low confidence identifications)
T26 construct: endogenous in cells; host or cells: HEK293T

VPS37D = target: T27, VPS37D (Homo sapiens, UniProt Q86XT2); experiment: Viral trapping in VLPs, MS analysis; format: binding; conditions: all proteins (incl. low confidence identifications)
T27 construct: endogenous in cells; host or cells: HEK293T

SLC17A1 = target: T28, SLC17A1 (Homo sapiens, UniProt Q14916); experiment: Viral trapping in VLPs, MS analysis; format: binding; conditions: all proteins (incl. low confidence identifications)
T28 construct: endogenous in cells; host or cells: HEK293T

TMED5 = target: T29, TMED5 (Homo sapiens, UniProt Q9Y3A6); experiment: Viral trapping in VLPs, MS analysis; format: binding; conditions: all proteins (incl. low confidence identifications)
T29 construct: endogenous in cells; host or cells: HEK293T

SH3GL2 = target: T30, SH3GL2 (Homo sapiens, UniProt Q99962); experiment: Viral trapping in VLPs, MS analysis; format: binding; conditions: all proteins (incl. low confidence identifications)
T30 construct: endogenous in cells; host or cells: HEK293T

[1] = all proteins (incl. low confidence identifications)
[2] = proteins identified with >1 peptide (high confidence)

CC/C(=C(\c1ccccc1)c1ccc(OCCN(C)C)cc1)c1ccccc1 [tamoxifen, reference compound]
confirmed: interaction between tamoxifen and HSD17B4 (HSD17B4)

CC1C=C2C=CC(C)C(CCC3CC(O)CC(=O)O3)C2C(OC(=O)C(C)(C)Cc2cn(CCOCCOCCOCCOCCOCCNC(=O)CCC(NC(=O)c3ccc(N(C)Cc4cnc5nc(N)nc(N)c5n4)cc3)C(=O)O)nn2)C1 (centres unmarked) [MTX-PEG6-simvastatin]
3 x/5: Recurrence (x/5) (SQLE; [2]) | Recurrence (x/5) (SARM1; [1]) | Recurrence (x/5) (SARM1; [2])
2 x/5: Recurrence (x/5) (PYGM)
5 x/5: Recurrence (x/5) (HMGCR; [1]) | Recurrence (x/5) (HMGCR; [2])
4 x/5: Recurrence (x/5) (SQLE; [1])
1 x/5: Recurrence (x/5) (ATP6V0C) | Recurrence (x/5) (EIF1AY) | Recurrence (x/5) (LAMTOR5) | Recurrence (x/5) (FABP1) | Recurrence (x/5) (CNPY2) | Recurrence (x/5) (RBP4) | Recurrence (x/5) (GALNT1) | Recurrence (x/5) (RAB4A) | Recurrence (x/5) (LNPEP) | Recurrence (x/5) (AKT3) | Recurrence (x/5) (GINS1) | Recurrence (x/5) (CTU1; [1]) | Recurrence (x/5) (CTU1; [2]) | Recurrence (x/5) (DDTL) | Recurrence (x/5) (FHL1) | Recurrence (x/5) (KIAA0319L; [1]) | Recurrence (x/5) (KIAA0319L; [2]) | Recurrence (x/5) (SLC46A1) | Recurrence (x/5) (MOXD1) | Recurrence (x/5) (LOC512271) | Recurrence (x/5) (SBDS) | Recurrence (x/5) (PDIA4; [1]) | Recurrence (x/5) (PDIA4; [2]) | Recurrence (x/5) (VAMP4) | Recurrence (x/5) (KRT6B; [1]) | Recurrence (x/5) (KRT6B; [2]) | Recurrence (x/5) (LOC524129) | Recurrence (x/5) (TMED9) | Recurrence (x/5) (UBIAD1; [1]) | Recurrence (x/5) (UBIAD1; [2]) | Recurrence (x/5) (PRKCSH) | Recurrence (x/5) (DBI) | Recurrence (x/5) (VPS37D) | Recurrence (x/5) (SLC17A1) | Recurrence (x/5) (TMED5) | Recurrence (x/5) (SH3GL2)

From patent US11231416B2, “Virus-like particle (VLP) based small molecule-protein interaction trap” (VIB VZW, priority 2015, dated 2022)
